Results taken from article PMC5529423, “ATP-dependent modulation of MgtE in Mg^2+ homeostasis” (Nature Communications, 2017).
Blank lines part the entries; values can stand above or below the molecule they belong to.

Key:
[1] = target: T1, TtMgtE (full-length MgtE) (Thermus thermophilus, UniProt Q5SMG8, R187E); assay: isothermal titration calorimetry; format: binding; conditions: 20 °C, no added Mg2+, NTM detergent, ligand solution pH 6.5; CBS domain site
T1 construct: full-length, expressed in E. coli C41 (DE3), Ni-NTA and gel filtration in detergent; homodimer; tag not described

[2] = target: T2, TtMgtE (full-length MgtE) (Thermus thermophilus, UniProt Q5SMG8); assay: isothermal titration calorimetry; format: binding
T2 construct: full-length, expressed in E. coli C41 (DE3), Ni-NTA and gel filtration in detergent; homodimer; tag not described
T2 sequence (Q5SMG8 1-450): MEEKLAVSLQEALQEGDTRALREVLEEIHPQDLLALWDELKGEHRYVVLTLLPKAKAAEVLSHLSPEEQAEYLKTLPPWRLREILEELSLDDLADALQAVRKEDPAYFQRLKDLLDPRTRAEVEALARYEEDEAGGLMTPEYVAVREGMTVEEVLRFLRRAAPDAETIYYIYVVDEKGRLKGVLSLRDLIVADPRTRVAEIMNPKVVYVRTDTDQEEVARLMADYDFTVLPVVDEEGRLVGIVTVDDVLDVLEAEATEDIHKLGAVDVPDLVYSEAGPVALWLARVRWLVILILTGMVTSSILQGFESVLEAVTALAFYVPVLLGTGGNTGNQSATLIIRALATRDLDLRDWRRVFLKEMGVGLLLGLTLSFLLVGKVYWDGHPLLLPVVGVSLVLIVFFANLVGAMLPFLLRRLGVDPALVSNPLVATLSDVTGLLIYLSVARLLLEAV

[3] = target: the molecule itself; assay: crystal structure; full-length MgtE with ATP; vapor diffusion over 9% PEG 4000, 0.2 M MgCl2, 0.05 M MES pH 6.5; 3.6 Å
[4] = target: the molecule itself; assay: crystal structure; cytosolic domain (1-275) with ATP; vapor diffusion over 20-22% PEG 400, 0.2 M MgCl2, 0.1 M HEPES pH 7.4; 3.0 Å

T1 sequence (Q5SMG8 whole entry R187E, the tested form may be a part): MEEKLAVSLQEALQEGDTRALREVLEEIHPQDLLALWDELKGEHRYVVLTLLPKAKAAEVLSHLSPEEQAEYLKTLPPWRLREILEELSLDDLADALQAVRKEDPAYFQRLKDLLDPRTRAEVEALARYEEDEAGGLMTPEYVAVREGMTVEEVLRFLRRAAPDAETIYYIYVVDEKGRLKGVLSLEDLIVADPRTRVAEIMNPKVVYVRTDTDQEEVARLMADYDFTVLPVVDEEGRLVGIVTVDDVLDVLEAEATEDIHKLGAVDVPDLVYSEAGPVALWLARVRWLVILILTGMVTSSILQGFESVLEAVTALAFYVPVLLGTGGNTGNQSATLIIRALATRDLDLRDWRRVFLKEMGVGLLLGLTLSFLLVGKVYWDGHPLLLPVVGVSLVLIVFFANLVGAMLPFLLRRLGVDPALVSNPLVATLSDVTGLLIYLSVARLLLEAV

- Kd [2]: 415 µM
Molecule: Nc1ncnc2c1ncn2[C@@H]1O[C@H](COP(=O)(O)OP(=O)(O)OP(=O)(O)O)[C@@H](O)[C@H]1O [ATP]
- isothermal titration calorimetry [1]: The injection of ATP into the R187E mutant solution still showed the weaker binding to ATP

- Kd [2]: 763 µM
Molecule: Nc1ncnc2c1ncn2[C@@H]1O[C@H](COP(=O)(O)OP(=O)(O)O)[C@@H](O)[C@H]1O [ADP]

The remaining lines, values behind:

B1: full-length Thermus thermophilus MgtE (natural protein, UniProt Q5SMG8 1-450, looked up)
chain: T2 sequence (Q5SMG8 1-450)
notes: MgtE Mg2+ channel of Thermus thermophilus, full length; crystallised with ATP and Mg2+; That MgtE is a homodimer is said in the introduction, of the earlier full-length structure; also called TtMgtE; wild type MgtE; source: E. coli C41 (DE3), solubilized with DDM, purified (Ni-NTA, Superdex 200 SEC)
- binding result [3]: binds

B2: cytosolic domain (1-275) of MgtE (domain or fragment, Thermus thermophilus, UniProt Q5SMG8 1-275, looked up)
chain: MEEKLAVSLQEALQEGDTRALREVLEEIHPQDLLALWDELKGEHRYVVLTLLPKAKAAEVLSHLSPEEQAEYLKTLPPWRLREILEELSLDDLADALQAVRKEDPAYFQRLKDLLDPRTRAEVEALARYEEDEAGGLMTPEYVAVREGMTVEEVLRFLRRAAPDAETIYYIYVVDEKGRLKGVLSLRDLIVADPRTRVAEIMNPKVVYVRTDTDQEEVARLMADYDFTVLPVVDEEGRLVGIVTVDDVLDVLEAEATEDIHKLGAVDVPDLVYSE
notes: MgtE Mg2+ channel of Thermus thermophilus, cytosolic domain (N domain and tandem CBS domains), residues 1-275; crystallised with ATP and Mg2+; also called MgtE cytosolic domain; source: E. coli C41 (DE3), purified
- binding result [4]: binds
